From US6376617B1, “Bioactive derivatives of camptothecin” (Pharmacia & Upjohn S.p.A., priority 1997, dated 2002)

System: human colon carcinoma (HT29)
Assay: Antitumor activity on human colon carcinoma (HT29) transplanted in nude mice
Conditions: HT29 sc in nude mice; for TI% 46th day (tumor inhibition %): day 46
Description: Tumor fragment were implanted sc. Treatment started when tumor was palpable. TI % (tumor inhibition %) was calculated at day 46.

[1] = iv q4dx6, dose 20 mg/kg, total dose 120 mg/kg

Row | Compound | Tox [1] | TI% 46th day (tumor inhibition %) [1] [%] | TI% 46th day (tumor inhibition %) (iv q4dx8, dose 5 mg/kg, total dose 40 mg/kg) [%] | TI% 46th day (tumor inhibition %) (iv q4dx8, dose 10 mg/kg, total dose 80 mg/kg) [%] | TI% 46th day (tumor inhibition %) (iv q4dx8, dose 20 mg/kg, total dose 160 mg/kg) [%]
1 | CCc1c2c(nc3ccc(O)cc13)-c1cc3c(c(=O)n1C2)COC(=O)[C@]3(O)CC [1a, 7-ethyl-10-hydroxycamptothecin, reference compound] | 1/7 | 97 | – | – | –
2 | copolymer of N-(2-hydroxypropyl)methacrylamide, {7-ethyl-10-hydroxy-20-O-[N-methacryloyl-glycyl-L-phenylalanyl-L-leucyl-glycyl]camptothecin} and N-(2-hydroxypropyl)methacryloylglycinamide [A1] | – | – | 77 | 91 | 98
